Measurements published in patent publication US8614254B2, “Methods and compositions for treating thalamocortical dysrhythmia” (New York University, priority 2007, dated 2013).

How the values were obtained:
[1] = system: low threshold activated Cav3 calcium currents (Cav3.1); assay: Whole-cell voltage-clamp patch recording of low threshold activated calcium currents in ventrobasal thalamic neurons of brain slices; format: cell-based, rodents (Long-Evans rats, Harley guinea pigs); conditions: for Cav3 peak currents (I-V curve): FIG. 2B
[2] = system: high voltage activated calcium currents; assay: Whole-cell voltage-clamp patch recording, slow component when low and high voltage activated calcium currents are open; format: cell-based, rodents (Long-Evans rats, Harley guinea pigs); conditions: 10 μM; −10 mV, both low and high voltage activated calcium currents open; FIG. 1B
[3] = system: thalamic neurons (low threshold spikes, low frequency oscillations); format: cell-based
EEG frequency profile = assay: EEG recording with Fast Fourier transform frequency analysis in wild type and alpha-1A knockout mice; format: in vivo, mouse
Experimental: Alpha1A knockout mice, which have an enhanced Cav3 calcium channel activity, develop progressive neurological symptoms resembling Thalamo-cortical Dysrhythmia characterized specifically by ataxia and dystonia, before dying, around four weeks after birth (Jun et al. (1999) Proc. Natl. Acad. Sci. USA. 96(26):15245-50).
When a Fast Fourier transform analysis is performed in two segments of 1 second each (FIG. 7A, segments a and b) from the same wild type trace, a wide range of frequencies is observed. Importantly, the presence of high frequencies in the range of gamma band is observed (FIG. 7A, red arrows). In contrast, an alpha-1A knockout mouse presents a totally different EEG recoding.
The administration of 1-octanol (Sinton et al., (1989) Pflügers Archiv 414: 31-36) in wild types versus knockout mice allows the quantification of the effects of such a drug in the high and low frequencies in the EEG. Since knockout mice only present low frequencies, a dose-response curve of 1-octanol can be easily prepared. Also, an augmentation in the ratio of high/low frequencies is expected for the wild types treated with 1-octanol.
Analysis of the frequency components plotted in blue bars show a decrease in the low frequencies (0-15 Hz) and an increase in hi frequencies (30-45 Hz) consistent with the fact that Cav3 channels are responsible for low frequencies and their block produces an increase in high frequency.

[4] = system: thalamic neurons (low threshold spike); format: cell-based, mouse
[5] = system: thalamic neurons (high-frequency 40 Hz subthreshold oscillation); format: cell-based, mouse
[6] = 50 μM, wild-type mouse, TTX 2 μM
[7] = wild-type mice, i.p., 0.2 mg/kg, FIG. 7D

SMILES: CCCCCCCCO [1-octanol]
- block of peak fast activated Cav3.1 calcium current (ICa) amplitude ([1]; 10 μM, holding level −30 mV where only low voltage activated calcium currents can be open, FIG. 1A): about 30%
- specificity of block of low threshold activated Cav3-type currents ([1]; ventrobasal thalamic neurons, conclusion from FIG. 1A and 1B): specifically block
- slow component that remains open at the end of the depolarized pulse [2]: leaving unchanged
- peak of low threshold spikes activated using ramps of current ([3]; 50 μM, FIG. 4A and 4B): further decreases
- membrane resistance ([3]; after blocking Cav3 calcium currents, same amplitude current pulse): increments
- effect on the low threshold spikes ([3]; current clamp, FIG. 4A and 4B): concentration-dependent
- ratio of high/low frequencies in the EEG (EEG frequency profile; wild types treated, expected): augmentation

SMILES: CCCCCCC(C)O (centres unmarked) [2-octanol]
- Cav3 peak currents (I-V curve) ([1]; 10 μM): partially reduced
- Cav3 peak currents (I-V curve) ([1]; 100 μM): almost abolished
- low threshold activated Cav3 calcium currents ([1]; 100 μM, voltage clamp, high Cs/QX314 intracellular solution): completely abolished
- Cav3 calcium currents peak with increasing concentrations ([1]; holding −70 mV, steps to −60, −30, −20 and −10 mV, FIG. 2A): progressive reduction
- thalamic low frequency oscillatory activity (low threshold spikes firing at 2 Hz) ([3]; 10 μM, five min. of perfusion, FIG. 3A): complete abolishment
- reversibility of the abolishment of oscillatory activity ([3]; after 40 min. of washout): partially reversible
- low threshold spike ([3]; after TTX removal from the external solution, FIG. 5A and 5B): block
- frequency of action potentials of the thalamic neurons ([3]; after TTX removal, after block of low threshold spike, increment in input resistance): notably increased

SMILES: CCCCCCCCO [octanol]
- low threshold activated Cav3 calcium currents of neurons of the thalamic Ventrobasal nucleus ([1]; clinical concentrations at micromolar level, summary of the examples): significantly reversibly block
- rebound low threshold spike [4, 6]: abolished
- low threshold spike ([4]; alpha1A-KO mouse, TTX, FIG. 6B): blocked
- 40 Hz oscillations on depolarizing square pulses [5, 6]: are observed
- high-frequency 40 Hz oscillations ([5]; alpha1A-KO mouse, before or after application): no high-frequency 40 Hz oscillations are present
- high frequency oscillations in the thalamic neurons ([5]; summary of the examples): does not appear to affect
- EEG hi frequencies (30-45 Hz) (EEG frequency profile; [7]): increase
- EEG low frequencies (0-15 Hz) (EEG frequency profile; [7]): decrease
